Source: US7749539B2, “Polymeric formulations for drug delivery” (Efrat Biopolymers Ltd., priority 2000, dated 2010)

What was measured:
[1] = intravenous injection, cited from earlier work
[2] = In vitro release of drug combinations from liquid poly(sebacic-ricinoleic ester anhydride); format: physicochemical; conditions: for release in combination compared with the drug alone: 1:1 w/w mixture of cisplatin or carboplatin with paclitaxel
Source text: The combination of two or more anticancer agents in the polymer implant was investigated. The release of a combination of drugs from liquid formulations of poly(sebacic-ricinoleic ester anhydride) was studied using a 1:1 w/w mixture of cisplatin or carboplatin with paclitaxel.

[3] = Release of peptides from liquid poly(SA-RA) 30:70; format: physicochemical; conditions: 200 mg in 800 mg poly(SA-RA) 30:70, phosphate buffer pH7.4, 37°C
Experimental: Insulin powder (200 mg) was mixed in liquid poly(SA-RA) 30:70 (800 mg) at room temperature. The uniform formulation was added in buffer solution (100 mg in 50 ml phosphate buffer pH7.4 at 37° C.) and the release of insulin to the solution was determined by HPLC. A constant release of insulin for more than 30 days was obtained.

CC(=O)O[C@H]1C(=O)[C@@]2(C)[C@H]([C@H](OC(=O)c3ccccc3)[C@]3(O)C[C@H](OC(=O)[C@H](O)[C@@H](NC(=O)c4ccccc4)c4ccccc4)C(C)=C1C3(C)C)[C@]1(OC(C)=O)CO[C@@H]1C[C@@H]2O [paclitaxel]
maximum tolerated dose (MTD) ([1]; female SPF C3H/HeNcrj mice): 26 mg/kg
dose at which death due to toxicity was observed ([1]; mice): 30 mg/kg
release in combination compared with the drug alone [2]: slightly enhanced

rapamycine
release of co-incorporated drug from the device ([2]; incorporated along with paclitaxel or other anticancer agents): released constantly

N.N.O=C([O-])C1(C(=O)[O-])CCC1.[Pt+2] [carboplatin]
release in combination compared with the drug alone [2]: slower

N.N.[Cl][Pt][Cl] [cisplatin]
release in combination compared with the drug alone [2]: slower

Insulin: Insulin powder mixed in liquid poly(SA-RA) 30:70
duration of constant release [3]: more than 30 days
